In brackets after ≈: the same amount, converted by molar mass. Like-named read-outs stand apart in the source and are kept apart here.
How the values were obtained:
[1] = target: T1, E. coli DnaE (DNA polymerase III α-subunit from Escherichia coli) (Escherichia coli, UniProt P10443); assay: In vitro DnaE single enzyme assay (E. coli); assay type: biochemical
T1 construct: EcDnaE (E. coli DnaE residues 1-1160); 6xHis (N); made in house; host or cells: E. coli BL21(DE3)
Procedure, shortened: (§1)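 3H-dTTP (0.011 mM) incorporation into DNase I-activated calf thymus DNA, alongside the other three dNTPs at 0.025 mM, measured by filter counting after TCA precipitation. Reactions ran 30 min at 30° C., started with purified N-His DnaE: 0.8 μg/ml for E. coli, 0.05 μg/ml for S. aureus.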

[2] = target: T2, S. aureus DnaE (DNA polymerase III α-subunit homolog from Staphylococcus aureus) (Staphylococcus aureus, UniProt Q5HF71); assay: biochemical; assay type: biochemical
T2 construct: SaDnaE (S. aureus DnaE residues 1-1065); 6xHis (N); made in house; host or cells: E. coli BL21-AI
T2 sequence (Q5HF71 1-1065): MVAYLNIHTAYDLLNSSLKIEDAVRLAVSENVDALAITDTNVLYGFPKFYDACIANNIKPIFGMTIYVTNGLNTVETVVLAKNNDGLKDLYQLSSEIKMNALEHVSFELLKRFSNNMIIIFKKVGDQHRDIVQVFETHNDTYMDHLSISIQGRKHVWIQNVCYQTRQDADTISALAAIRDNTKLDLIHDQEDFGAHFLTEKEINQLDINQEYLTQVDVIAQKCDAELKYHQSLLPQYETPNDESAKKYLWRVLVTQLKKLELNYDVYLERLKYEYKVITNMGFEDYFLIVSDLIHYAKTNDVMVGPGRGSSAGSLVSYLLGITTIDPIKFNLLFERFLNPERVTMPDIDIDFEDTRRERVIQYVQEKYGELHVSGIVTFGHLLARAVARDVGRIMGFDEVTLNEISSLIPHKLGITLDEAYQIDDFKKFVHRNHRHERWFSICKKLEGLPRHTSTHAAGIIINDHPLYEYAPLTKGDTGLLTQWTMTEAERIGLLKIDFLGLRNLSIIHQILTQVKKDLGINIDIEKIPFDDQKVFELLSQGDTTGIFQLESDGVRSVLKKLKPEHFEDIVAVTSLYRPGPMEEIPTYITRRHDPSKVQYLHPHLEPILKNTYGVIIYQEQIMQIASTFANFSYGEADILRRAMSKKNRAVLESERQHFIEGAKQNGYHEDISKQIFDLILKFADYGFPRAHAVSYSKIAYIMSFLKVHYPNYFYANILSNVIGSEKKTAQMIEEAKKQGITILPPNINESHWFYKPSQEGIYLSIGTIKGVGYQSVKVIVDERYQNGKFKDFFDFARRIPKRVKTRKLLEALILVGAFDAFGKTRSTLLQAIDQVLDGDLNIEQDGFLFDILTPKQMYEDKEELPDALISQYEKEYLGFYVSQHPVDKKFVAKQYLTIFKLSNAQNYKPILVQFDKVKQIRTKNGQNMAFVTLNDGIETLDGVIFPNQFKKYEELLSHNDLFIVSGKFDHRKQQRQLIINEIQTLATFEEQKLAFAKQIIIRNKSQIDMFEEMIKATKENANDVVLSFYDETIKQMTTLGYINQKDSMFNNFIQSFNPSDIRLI
Procedure, shortened: as §1

[3] = system: Escherichia coli MB5747 (LS 883, tolC); assay: microbe, parasite or virus in culture; assay type: cell-based; conditions: Escherichia coli, read-out: E. coli LS883 tolC (MIC), MHII broth; * = some reduction of growth versus control at […]
[4] = system: Pseudomonas aeruginosa MB5890 (CB1101, efflux-deleted); assay: microbe, parasite or virus in culture; assay type: cell-based; conditions: Pseudomonas aeruginosa, read-out: P. aeruginosa MB5890 efflux-del (MIC), MHII broth; * = some reduction of growth versus control at […]
[5] = system: Staphylococcus aureus MB6266 (MRSA COL); assay: Nargenicin antibacterial assay (MIC), S. aureus; assay type: cell-based; conditions: Staphylococcus aureus, MRSA, read-out: S. aureus COL (MIC), MHII broth + 50% human serum; * = some reduction of growth versus control at […]
[6] = system: Streptococcus pneumoniae MB6357 (CL 2883); assay: Nargenicin antibacterial assay (MIC), S. pneumoniae; assay type: cell-based; conditions: Streptococcus pneumoniae, read-out: S. pneumoniae MB2883 (MIC), Isosensitest broth; * = some reduction of growth versus control at […]
[7] = read-out: E. coli DnaE IC50 (converted)

T1 sequence (P10443 whole entry, the tested form may be a part): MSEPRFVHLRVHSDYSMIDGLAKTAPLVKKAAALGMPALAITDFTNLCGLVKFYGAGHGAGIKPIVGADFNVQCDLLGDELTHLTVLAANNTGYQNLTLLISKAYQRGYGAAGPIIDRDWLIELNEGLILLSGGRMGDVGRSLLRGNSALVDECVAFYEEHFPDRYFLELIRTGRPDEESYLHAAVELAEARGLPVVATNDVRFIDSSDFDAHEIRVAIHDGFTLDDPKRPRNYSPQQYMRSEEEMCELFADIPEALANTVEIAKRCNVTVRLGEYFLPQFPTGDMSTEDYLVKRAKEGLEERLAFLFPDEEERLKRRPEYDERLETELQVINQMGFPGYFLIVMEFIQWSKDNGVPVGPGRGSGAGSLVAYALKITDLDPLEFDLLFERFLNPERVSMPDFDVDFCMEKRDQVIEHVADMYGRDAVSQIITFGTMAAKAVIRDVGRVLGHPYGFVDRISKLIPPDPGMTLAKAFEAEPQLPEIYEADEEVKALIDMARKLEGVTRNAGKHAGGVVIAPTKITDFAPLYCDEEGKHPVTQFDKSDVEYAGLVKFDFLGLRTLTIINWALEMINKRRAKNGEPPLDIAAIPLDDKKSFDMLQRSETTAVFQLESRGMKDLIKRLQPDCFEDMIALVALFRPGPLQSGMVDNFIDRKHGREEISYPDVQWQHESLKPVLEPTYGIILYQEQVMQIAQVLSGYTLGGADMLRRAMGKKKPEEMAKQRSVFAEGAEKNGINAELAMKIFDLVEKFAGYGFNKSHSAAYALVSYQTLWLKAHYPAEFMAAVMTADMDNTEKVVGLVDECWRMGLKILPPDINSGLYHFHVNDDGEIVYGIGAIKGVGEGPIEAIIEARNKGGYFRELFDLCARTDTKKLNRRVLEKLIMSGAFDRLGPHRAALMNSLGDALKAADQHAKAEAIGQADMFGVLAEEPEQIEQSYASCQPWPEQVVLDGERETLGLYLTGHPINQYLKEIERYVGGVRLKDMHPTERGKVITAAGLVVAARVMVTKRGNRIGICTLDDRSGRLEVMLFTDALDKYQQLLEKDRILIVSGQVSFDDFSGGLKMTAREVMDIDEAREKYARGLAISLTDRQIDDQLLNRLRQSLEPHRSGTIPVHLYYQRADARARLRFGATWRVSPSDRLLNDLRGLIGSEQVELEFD

Compound	IC50 ([1]; E. coli DnaE IC50)	IC50 ([2]; read-out: S. aureus DnaE IC50 (converted))	MIC [3]	MIC [4]	MIC [5]	MIC [6]	IC50 ([2]; S. aureus DnaE IC50)	IC50 [1, 7]
CO[C@H]1C[C@H]2C=C[C@H]3[C@H]4O[C@]2(/C(C)=C/[C@@H](C)[C@@H]([C@@H](C)O)OC1=O)[C@@H]3C(=O)C(C)[C@H]4C#N (stereo partly drawn) [Example 176, (3R,4 S ,7S ,8aS ,10aR,11R,12S ,14aR,14b S,E)-4-((R)-1-hydroxyethyl)-7-methoxy-1,3,13-trimethyl-6,14-dioxo-3,4,6,7,8,8a,10a,11,12,13,14,14a-dodecahydro-11,14b-epoxynaphtho[2,1-e]oxecine-12-carbonitrile]	> 233 µM	25.6 µM	> 128 µg/mL	> 128 µg/mL	> 128 µg/mL	> 128 µg/mL		
CO[C@H]1C[C@H]2C=CC3C4[C@H](O)[C@@H](C)[C@@H](OC(=O)c5ccc[nH]5)[C@@H]3O[C@]42/C(C)=C/[C@@H](C)[C@@H]([C@@H](C)OC(=O)C(=O)NCc2ccccc2)OC1=O [Example 114, (3R,4S,7S,8aS,11R,12R,13R,14R,14bS,E)-4-((R)-1-(2-(benzylamino)-2-oxoacetoxy)ethyl)-14-hydroxy-7-methoxy-1,3,13-trimethyl-6-oxo-3,4,6,7,8,8a,10a,11,12,13,14,14a-dodecahydro-11,14b-epoxynaphtho[2,1-e]oxecin-12-yl 1H-pyrrole-2-carboxylate]	16.3 µM		0.25 µg/mL (≈ 0.369 µM)	8 µg/mL (≈ 11.8 µM)	< 0.125 µg/mL	> 128 µg/mL	< 0.00887 µM	
CO[C@H]1CC2C=C[C@H]3[C@H]4O[C@]2(/C(C)=C/[C@@H](C)[C@@H]([C@@H](C)O)OC1=O)[C@@H]3[C@H](OC(N)=O)[C@@H](C)[C@H]4OC(=O)c1ccc[nH]1 (stereo partly drawn) [Example 38, (3R,4S,7S,10aR,11R,12R,13R,14R,14aS,14bS,E)-14-(carbamoyloxy)-4-((R)-1-hydroxyethyl)-7-methoxy-1,3,13-trimethyl-6-oxo-3,4,6,7,8,8a,10a,11,12,13,14,14 a-dodecahydro-11,14b-epoxynaphtho[2,1-e]oxecin-12-yl 1H-pyrrole-2-carboxylate]			16 µg/mL (≈ 28.6 µM)	> 128 µg/mL	32 µg/mL	128 µg/mL (≈ 229 µM)	0.0394 µM	~197 µM
CO[C@H]1C[C@H]2C=C[C@H]3[C@H]4O[C@]2(/C(C)=C/[C@@H](C)[C@@H]([C@@H](C)OC(=O)OCCO)OC1=O)[C@@H]3[C@H](O)[C@@H](C)[C@H]4OC(=O)c1ccc[nH]1 [Example 30]			1 µg/mL (≈ 1.66 µM)	16 µg/mL (≈ 26.5 µM)	0.5 µg/mL	64 µg/mL (≈ 106 µM)	< 0.00994 µM	116 µM
CO[C@H]1C[C@H]2C=C[C@H]3[C@H]4O[C@]2(/C(C)=C/[C@@H](C)[C@@H]([C@@H](C)O)OC1=O)[C@@H]3[C@H](O)[C@@H](C)[C@H]4OC(=O)c1ccc(Cl)[nH]1 [Example 44]			8 µg/mL (≈ 14.5 µM)	128 µg/mL (≈ 233 µM)	16 µg/mL	64 µg/mL (≈ 116 µM)	< 0.0109 µM	49.1 µM
CO[C@H]1C[C@H]2C=CC3C4[C@H](OC(=O)C(=O)OCCN5CCN(C)CC5)[C@@H](C)[C@@H](OC(=O)c5ccc[nH]5)[C@@H]3O[C@]42/C(C)=C/[C@@H](C)[C@@H]([C@@H](C)OC(=O)C(=O)OCCN2CCN(C)CC2)OC1=O.O=C(O)C(F)(F)F [Example 209]			4 µg/mL	> 128 µg/mL	4 µg/mL	> 128 µg/mL	< 0.00585 µM	16.6 µM
C/C1=C\[C@@H](C)[C@@H](C(C)O)OC(=O)C(O)CC2C=C[C@H]3[C@H]4O[C@@]12[C@@H]3[C@H](O)[C@@H](C)[C@H]4OC(=O)c1ccc[nH]1 (stereo partly drawn) [Example 174]			8 µg/mL (≈ 15.9 µM)	> 128 µg/mL	8 µg/mL	> 128 µg/mL	0.0199 µM	21.9 µM
C=CC[C@H]1OC(=O)[C@@H](OC)C[C@H]2C=C[C@H]3[C@H]4O[C@]2(/C(C)=C/[C@H]1C)[C@@H]3[C@H](O)[C@@H](C)[C@H]4OC(=O)c1ccc[nH]1 [Example 55]			2 µg/mL (≈ 3.91 µM)	32 µg/mL (≈ 62.5 µM)	2 µg/mL	> 64 µg/mL	< 0.0117 µM	11.7 µM
CO[C@H]1C[C@H]2C=C[C@H]3[C@H]4O[C@]2(/C(C)=C/[C@@H](C)[C@@H]([C@@H](C)OC(=O)OCC(CO)CO)OC1=O)[C@@H]3[C@H](O)[C@@H](C)[C@H]4OC(=O)c1ccc[nH]1 [Example 36]			2 µg/mL (≈ 3.09 µM)	64 µg/mL (≈ 98.8 µM)	2 µg/mL	> 128 µg/mL	< 0.00926 µM	17 µM
C=CC[C@@H]1C(C)[C@@H](O)[C@@H]2[C@H]3C=C[C@@H]4C[C@H](OC)C(=O)O[C@H]([C@@H](C)O)[C@H](C)/C=C(\C)[C@@]24O[C@H]31 (stereo partly drawn) [Example 179, (3R,4S,7S,8aS,10aR,11S,12R,14R,14aS,14bS,E)-12-allyl-14-hydroxy-4-((R)-1-hydroxyethyl)-7-methoxy-1,3,13-trimethyl-3,4,8,8a,10a,11,12,13,14,14a-decahydro-11,14b-epoxynaphtho[2,1-e]oxecin-6(7H)-one]			64 µg/mL (≈ 143 µM)	> 64 µg/mL	> 64 µg/mL	64 µg/mL (≈ 143 µM)	29.1 µM	> 112 µM
CO[C@H]1CC2C=C[C@H]3[C@H]4O[C@]2(/C(C)=C/[C@@H](C)[C@@H]([C@@H](C)OC(=O)C[n+]2ccc(C(N)=O)cc2)OC1=O)[C@@H]3[C@H](O)[C@@H](C)[C@H]4OC(=O)c1ccc[nH]1 (stereo partly drawn) [Example 70]			0.5 µg/mL	16 µg/mL	0.5 µg/mL	> 128 µg/mL	< 0.00884 µM	13.3 µM
CCCCCCCCNC(=O)O[C@H](C)[C@H]1OC(=O)[C@@H](OC)C[C@H]2C=C[C@H]3[C@H]4O[C@]2(/C(C)=C/[C@H]1C)[C@@H]3[C@H](O)[C@@H](C)[C@H]4OC(=O)c1ccc[nH]1 [Example 14]			> 128 µg/mL	> 128 µg/mL	> 128 µg/mL	32 µg/mL (≈ 47.7 µM)	0.119 µM	16.4 µM
CO[C@H]1C[C@H]2C=C[C@@H]3[C@H]4[C@H](O)[C@@H](C)C(n5ccnc5)[C@@H]3O[C@]42/C(C)=C/[C@@H](C)[C@@H]([C@@H](C)O)OC1=O (stereo partly drawn) [Example 149]	> 212 µM		32 µg/mL (≈ 67.7 µM)	128 µg/mL (≈ 271 µM)	> 128 µg/mL	> 128 µg/mL	23.3 µM	
COC1CC2C=CC3C4OC2(C(C)=CC(C)C(C(C)OC(=O)OCCN(CCO)CCO)OC1=O)C3C(O)C(C)C4OC(=O)c1ccc[nH]1 (stereo not drawn) [Example 32]			2 µg/mL (≈ 2.9 µM)	64 µg/mL (≈ 92.6 µM)	2 µg/mL	> 128 µg/mL	~0.00651 µM	> 145 µM
CO[C@H]1C[C@H]2C=C[C@H]3[C@H]4O[C@]2(/C(C)=C/[C@@H](C)[C@@H](c2ccccc2)OC1=O)[C@@H]3[C@H](O)[C@@H](C)[C@H]4OC(=O)c1ccc[nH]1 [Example 51]			> 128 µg/mL	> 128 µg/mL	0.25 µg/mL	> 128 µg/mL	< 0.011 µM	14.6 µM
